Results on 15 compounds are retold here after patent US20100009956A1, “NOVEL SUBSTITUTED PYRIMIDINES AS CYSTEINE PROTEASE INHIBITORS” (Glaxo Group Limited , a corporation, priority 2006, published 2010).

pIC50: −log10 of the molar value. Counter-ions that a name gives are not always drawn. Like-named read-outs stand apart in the source and are kept apart here.

Common to all, as to assay type: biochemical
Experiment [1] deals with Falcipain-2 (Plasmodium falciparum, UniProt Q8I6U4). Nature of the experiment: Falcipain-2 enzymatic assay (assay 1). In short, it runs like this:
(§1)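 Recombinant parasite enzyme with 30 uM H-D-VLR-AFC in 100 mM sodium acetate pH 5.5, 10 mM DTT, 0.5 mM CHAPS, 1% DMSO, ambient temperature. Endpoint after 60 minutes, quenched with 16.6 uM E-64; AFC fluorescence (ex 405/em 530). IC50 from four-parameter fit, apparent KI assuming competitive inhibition.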

In experiment [2] the target is Falcipain-3 (Plasmodium falciparum, UniProt Q8IIL0). Put plainly: Falcipain-3 enzymatic assay (assay 1). Put shortly: as §1
The target of experiment [3] is T1, Cathepsin K (Homo sapiens, UniProt P43235).
T1 sequence (P43235 115-329): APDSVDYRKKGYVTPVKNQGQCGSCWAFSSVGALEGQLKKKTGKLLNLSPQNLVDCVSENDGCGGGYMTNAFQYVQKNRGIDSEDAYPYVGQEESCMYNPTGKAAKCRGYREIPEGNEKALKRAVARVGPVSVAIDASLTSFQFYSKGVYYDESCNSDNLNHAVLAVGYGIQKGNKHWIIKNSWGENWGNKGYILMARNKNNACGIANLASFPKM
Put plainly: Cathepsin K enzymatic assay (assay 1). Particulars: human recombinant enzyme, Z-FR-AFC substrate, pH 5.5. Put shortly:
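Human recombinant cathepsin K was assayed with the fluorogenic substrate Z-FR-AFC at 20 uM in 100 mM sodium acetate, pH 5.5, with 5 mM L-cysteine, 1 mM CHAPS, 5 mM EDTA and 1% DMSO. Enzyme plus substrate was added to wells holding inhibitor in DMSO. After 60 minutes at ambient temperature, 16.6 uM E-64 quenched the reaction. AFC fluorescence (excitation 405 nm, emission 530 nm) was read, and IC50 came from a four-parameter dose-response fit.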

For experiment [4], the target named is Cathepsin S (Homo sapiens, UniProt P25774). Nature of the experiment: Cathepsin S enzymatic assay (assay 1). Particulars: human recombinant enzyme, KQKLR-AMC substrate, pH 6.5. As to the method:
Assay 1) Determination of Falcipain-2, Falcipain-3, Vivapain-2, Cathepsin K Cathepsin S, Cathepsin L, and Cathepsin B Proteolytic Catalytic Activity
Assays for Falcipain-2, Falcipain-3, and Vivapain-2 are carried out with parasitic recombinant enzymes. Cathepsins K, S, L, and B are carried out with human recombinant enzymes. Standard assay conditions for the determination of kinetic constants used a fluorogenic peptide substrate, typically H-D-VLR-AFC (Falcipain-2, Falcipain-3, Vivapain-2), Z-FR-AFC (Cathepsin K, L, B), or KQKLR-AMC (Cathepsin S) and are determined in 100 mM sodium acetate, pH 5.5, containing 10 mM DTT and 0.5 mM CHAPS (Falcipain-2, Falcipain-3, Vivapain-2), and 100 mM sodium acetate, pH 5.5, containing 5 mM L-cysteine, 1 mM CHAPS and 5 mM EDTA (Cathepsin K, L, B), or 50 mM MES, pH 6.5, containing 0.5 mM CHAPS, 10 mM L-CYS, 5 mM EDTA (Cathepsin S). Stock substrate solutions are prepared at 20 mM in DMSO. The activity assays contained 30 uM substrate (Falcipain-2, Falcipain-3, Vivapain-2), 20 uM substrate (Cathepsin K), 25 uM substrate (Cathepsin B), 5 uM substrate (Cathepsin L), and 30 uM substrate (Cathepsin S). All assays contained 1% DMSO. […] All assays are conducted at ambient temperature as end point assays being quenched after 60 minutes with the exception of Cathepsin S at 90 minutes, with 16.6 uM E-64 in 1% DMSO. Product formation (AFC or AMC) is determined from fluorescence (excitation at 405 nm; emission at 530 nm, AFC, or excitation at 360 nm; emission at 460 nm, AMC) monitored with a LJL Aquest (Molecular Devices) fluorescent plate reader. In the case of kinetic reads (used in mechanism of action studies), the reaction is not quenched but is read in the plate reader every 3 minutes for approximately 90 minutes. In addition, the mechanism of action studies for Falcipain-2 utilize Z-LR-AMC as the substrate. Product formation is determined from the fluorescence of AMC, measured with a LJL Acquest (Molecular Devices) fluorescent plate reader (excitation at 360 nm; emission at 460 nm).
Potential inhibitors are evaluated using the quenched read (endpoint) method. Assays are carried out in the presence of variable concentrations of test compound. Reactions are initiated by addition of enzyme and substrate to wells containing inhibitor stamped in 100% DMSO. For endpoint assays, the reaction is quenched with the addition of E64. Dose response data is fit to an IC50 curve with preset fitting tools according to equation 1:
y=a+(b−a)/(1+(10^x/10^c)^d) (1)
where y is the response at a particular inhibitor concentration x, a is the minimum response value, b is the maximum response value, c is the IC50, and d is the slope of the IC50 curve. Assuming the compound is a competitive inhibitor, the apparent KI can be calculated from IC50, as shown in equation 2: […]

Sequence of Falcipain-2 (Q8I6U4 244-484): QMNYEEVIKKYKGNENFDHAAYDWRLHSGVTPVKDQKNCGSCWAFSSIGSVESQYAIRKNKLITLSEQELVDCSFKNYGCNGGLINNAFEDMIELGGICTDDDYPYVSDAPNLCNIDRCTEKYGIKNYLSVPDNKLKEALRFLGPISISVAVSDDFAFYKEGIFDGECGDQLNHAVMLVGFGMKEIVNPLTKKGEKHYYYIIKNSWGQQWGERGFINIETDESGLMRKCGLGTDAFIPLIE
Sequence of Falcipain-3 (Q8IIL0 243-492): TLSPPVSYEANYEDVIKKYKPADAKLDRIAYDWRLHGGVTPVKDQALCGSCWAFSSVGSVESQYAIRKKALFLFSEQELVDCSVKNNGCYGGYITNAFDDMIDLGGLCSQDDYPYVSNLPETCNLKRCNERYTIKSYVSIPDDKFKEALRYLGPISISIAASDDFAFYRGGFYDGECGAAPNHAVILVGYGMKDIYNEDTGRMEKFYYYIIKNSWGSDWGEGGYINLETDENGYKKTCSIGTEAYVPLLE
Sequence of Cathepsin S (P25774 115-331): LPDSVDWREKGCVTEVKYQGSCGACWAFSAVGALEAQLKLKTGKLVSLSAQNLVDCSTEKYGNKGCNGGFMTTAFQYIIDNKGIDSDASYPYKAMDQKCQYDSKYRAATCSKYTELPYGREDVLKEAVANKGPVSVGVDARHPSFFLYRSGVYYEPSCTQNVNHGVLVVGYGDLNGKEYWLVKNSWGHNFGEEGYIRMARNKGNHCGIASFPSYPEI

One may read the pIC50 as the IC50 on a negative log10 scale, so that one unit is a factor of ten. Turning to `CN1CCCC(CN2CCN(Cc3cccc(C(=O)NN(c4nc(C#N)ncc4Br)C4CCCCC4)c3)CC2)C1` (stereo not shown) [Example 27, N′-(5-bromo-2-cyano-4-pyrimidinyl)-N′-cyclohexyl-3-({4-[(1-methyl-3-piperidinyl)methyl]-1-piperazinyl}methyl)benzohydrazide trifluoroacetate], the pIC50 in experiment [1] is > 9.00; in experiment [2], 7.82 to 8.60; in experiment [3], > 8.82; in experiment [4] it was > 6.00.

In the case of `CN1CCN(Cc2ccc(C(=O)NN(c3nc(C#N)ncc3Cl)C3CCCC3)cc2)CC1` [Example 50, N′-(5-chloro-2-cyano-4-pyrimidinyl)-N′-cyclopentyl-4-[(4-methyl-1-piperazinyl)methyl]benzohydrazide trifluoroacetate], the pIC50 in experiment [1] (parasitic recombinant enzyme, H-D-VLR-AFC substrate, pH 5.5, endpoint read, read-out: Falcipain-2 IC50) was > 9.00; in experiment [2], 6.82 to 7.82; in experiment [3], > 8.82; in experiment [4], > 6.70.

For the compound `CN1CCN(Cc2ccc(C(=O)NN(c3nc(C#N)ncc3Cl)C3CCCCC3)cc2)CC1` [Example 51, N′-(5-chloro-2-cyano-4-pyrimidinyl)-N′-cyclohexyl-4-[(4-methyl-1-piperazinyl)methyl]benzohydrazide trifluoroacetate], the pIC50 is 8.60 to 9.00 in experiment [1], 6.82 to 7.82 in experiment [2], > 8.82 in experiment [3] and > 6.70 in experiment [4].

Consider `CC1CCC(N(NC(=O)c2ccc(CN3CCC(N4CCN(C)CC4)CC3)cc2)c2nc(C#N)ncc2Br)C1` (mixture of isomers) [Example 4, N′-(5-bromo-2-cyano-4-pyrimidinyl)-N′-(3-methylcyclopentyl)-4-{[4-(4-methyl-1-piperazinyl)-1-piperidinyl]methyl}benzohydrazide trifluoroacetate], for which the negative-log IC50 (pIC50) in experiment [1] was > 9.00; in experiment [2] it was 8.60 to 9.00; in experiment [3] it was > 8.82; in experiment [4], > 6.00.

As to `CC1CCC(N(NC(=O)c2ccc(CN3CCN(CC4CCN(C)CC4)CC3)cc2)c2nc(C#N)ncc2Br)C1` (mixture of isomers) [Example 5, N′(5-bromo-2-cyano-4-pyrimidinyl)-N′-(3-methylcyclopentyl)-4-({4-[(1-methyl4-piperidinyl)methyl]-1-piperazinyl}methyl)benzohydrazide trifluoroacetate], the pIC50 was > 9.00 in experiment [1], 6.82 to 7.82 in experiment [2], > 8.82 in experiment [3] and > 6.00 in experiment [4].

In the case of `CN(Cc1ccc(C(=O)NN(c2nc(C#N)ncc2Cl)C2CCCC2)cc1)C(C)(C)Cc1ccccc1` [Example 71, N′-(5-chloro-2-cyano-4-pyrimidinyl)-N′-cyclopentyl-4-{[(1,1-dimethyl-2-phenylethyl)(methyl)amino]methyl}benzohydrazide trifluoroacetate], the pIC50 was > 9.00 in experiment [1], 7.82 to 8.60 in experiment [2] and > 6.70 in experiment [4].

Take `CN1CCN(Cc2ccc(-c3ccc(C(=O)NN(c4nc(C#N)ncc4Br)C4CCCC4)cn3)cc2)CC1` [Example 46, N′-(5-bromo-2-cyano-4-pyrimidinyl)-N′-cyclopentyl-6-{4-[(4-methyl-1-piperazinyl)methyl]phenyl}-3-pyridinecarbohydrazide trifluoroacetate]: the pIC50 in experiment [1] is > 9.00; in experiment [2], 6.82 to 7.82; in experiment [3], > 8.82; in experiment [4] it was > 6.70.

Regarding `CN(Cc1ccc(C(=O)NN(c2nc(C#N)ncc2Cl)C2CCCC2)cc1)C1CCCCC1` [Example 53, N′-(5-chloro-2-cyano-4-pyrimidinyl)-4-{[cyclohexyl(methyl)amino]methyl}-N′-cyclopentylbenzohydrazide trifluoroacetate], the pIC50 in experiment [1] was > 9.00; in experiment [2] it was 7.82 to 8.60; in experiment [4] it was > 6.70.

Consider `CN1CCN(Cc2ccc(C(=O)NN(c3nc(C#N)ncc3Br)C3CCCC3)cc2)CC1` [Example 1, N′-(5-bromo-2-cyano-4-pyrimidinyl)-N′-cyclopentyl-4-[(4-methyl-1-piperazinyl)methyl]benzohydrazide trifluoroacetate], for which the pIC50 in experiment [1] is > 9.00; in experiment [3], > 8.82; in experiment [4], > 6.70.

Regarding `CC(=O)N1CCC(N(NC(=O)c2ccc(CN3CCC(C(=O)N4CCN(C)CC4)CC3)cc2)c2nc(C#N)ncc2Br)CC1` [Example 49, N′-(1-acetyl-4-piperidinyl)-N′-(5-bromo-2-cyano-4-pyrimidinyl)-4-({4-[(4-methyl-1-piperazinyl)carbonyl]-1-piperidinyl}methyl)benzohydrazide trifluoroacetate], the pIC50 is > 9.00 in experiment [1], 6.82 to 7.82 in experiment [2], > 7.77 in experiment [3] and > 6.70 in experiment [4].

For the compound `N#Cc1ncc(Cl)c(N(NC(=O)c2ccc(CN3CCC(O)CC3)cc2)C2CCCC2)n1` [Example 70, N′-(5-chloro-2-cyano-4-pyrimidinyl)-N′-cyclopentyl-4-[(4-hydroxy-1-piperidinyl)methyl]benzohydrazide trifluoroacetate], the pIC50 was > 9.00 in experiment [1], 7.82 to 8.60 in experiment [2] and > 6.70 in experiment [4].

Take `CN1CCN(Cc2cccc(-c3cncc(C(=O)NN(c4nc(C#N)ncc4Br)C4CCCCC4)c3)c2)CC1` [Example 47, N′-(5-bromo-2-cyano-4-pyrimidinyl)-N′-cyclohexyl-5-{3-[(4-methyl-1-piperazinyl)methyl]phenyl}-3-pyridinecarbohydrazide trifluoroacetate]: the pIC50 in experiment [1] is > 9.00; in experiment [2], 7.82 to 8.60; in experiment [3], > 8.82; in experiment [4], > 6.70.

As for `CN1CCN(C2CCN(Cc3ccc(C(=O)NN(c4nc(C#N)ncc4Cl)C4CCCCC4)cc3)CC2)CC1` [Example 41, N′-(5-chloro-2-cyano-4-pyrimidinyl)-N′-cyclohexyl-4-{([4-(4-methyl-1-piperazinyl)-1-piperidinyl]methyl}benzohydrazidedihydrochloride], the pIC50 in experiment [3] was > 8.82; in experiment [4], > 6.70.

As for `CN(CCC(O)c1ccccc1)Cc1ccc(C(=O)NN(c2nc(C#N)ncc2Cl)C2CCCC2)cc1` (stereo not shown) [Example 59, N′-(5-chloro-2-cyano-4-pyrimidinyl)-N′-cyclopentyl-4-{[(3-hydroxy-3-phenylpropyl)(methyl)amino]methyl}benzohydrazide trifluoroacetate], the pIC50 in experiment [1] is > 9.00; in experiment [2], 8.60 to 9.00; in experiment [4], > 6.70.

As for `CCN(Cc1ccc(C(=O)NN(c2nc(C#N)ncc2Cl)C2CCCC2)cc1)C1CCCCC1` [Example 69, N′-(5-chloro-2-cyano-4-pyrimidinyl)-4{[cyclohexyl(ethyl)amino]methyl}-N′-cyclopentylbenzohydrazide trifluoroacetate], the pIC50 in experiment [1] was > 9.00; in experiment [2] it was 7.82 to 8.60; in experiment [4], > 6.70.
